Experiments:
Format in all cases: biochemical
Flt3 kinase = molecular target: T1, Flt3 kinase (Homo sapiens, UniProt P36888); assay: Flt3 kinase assay (33P incorporation into Poly(Glu-Tyr)); details: 100 nM test compound; read-out: Inhibition at 100 nM (%) Flt-3
T1 construct: recombinant N-terminal 6×His-tagged Flt3 kinase domain construct expressed from baculovirus; 6xHis (N); made in house
T1 sequence (P36888 610-943 limits assumed): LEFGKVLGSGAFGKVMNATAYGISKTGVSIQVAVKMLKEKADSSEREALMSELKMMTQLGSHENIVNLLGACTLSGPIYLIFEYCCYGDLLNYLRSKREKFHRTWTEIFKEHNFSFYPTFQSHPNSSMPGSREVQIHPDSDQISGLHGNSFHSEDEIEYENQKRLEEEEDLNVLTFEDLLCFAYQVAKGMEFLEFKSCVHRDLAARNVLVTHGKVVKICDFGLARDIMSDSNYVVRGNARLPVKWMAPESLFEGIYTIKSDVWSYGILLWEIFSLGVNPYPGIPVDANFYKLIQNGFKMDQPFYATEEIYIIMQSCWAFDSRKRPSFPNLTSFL
Description: Inhibition of Flt3 kinase activity by compounds disclosed herein was quantified by measuring the amount of [^33P] incorporated into the substrate in the presence of a test compound. Briefly, a reaction mixture of 25 μL final volume containing 5 ng of Flt3 kinase (obtained by purifying recombinant N-terminal 6×His-tagged Flt3 kinase domain construct expressed from baculovirus), 5 μg of the substrate (Poly (Glu-Tyr, 4:1, Sigma)), kinase reaction buffer (20 mM MOPS pH 7.0, 1 mM EDTA, 5% glycerol, 0.01% Brij-35, 0.1% β-mercaptoethanol, 1 mg/mL BSA, 100 μM ATP, 0.1 μCi per well [^33P]-γ-ATP (2,500-3,000 Ci/mmol)), and a test compound (100 nM, diluted with 4% DMSO) or DMSO (as the control) was incubated at 30° C. for 30 minutes. The reaction was stopped by adding 5 μL of 3% phosphoric acid solution. The resultant reaction solution was then harvested onto a filter plate (UniFilter-96 GF/B, PerkinElmer), washed 20 times for 5 min with d.d. H2O, and followed by the addition of 30 μL of MicroScint™-20 Cocktail (PerkinElmer). The plate was then sealed and counted using a TopCount scintillation detector (PerkinElmer). The percentage of inhibition rate of the test compound was calculated by dividing the retained radioactivity of the test sample with the retained radioactivity of the control sample and shown in Table 3.

Aurora A kinase = molecular target: T2, Aurora A kinase (Homo sapiens, UniProt O14965); assay: Aurora A kinase assay ([γ-33P]ATP, CHOCKtide substrate); details: for inhibition at 1 µM: 1.0 μM test compound
T2 construct: purchased Upstate
T2 sequence (O14965 1-403): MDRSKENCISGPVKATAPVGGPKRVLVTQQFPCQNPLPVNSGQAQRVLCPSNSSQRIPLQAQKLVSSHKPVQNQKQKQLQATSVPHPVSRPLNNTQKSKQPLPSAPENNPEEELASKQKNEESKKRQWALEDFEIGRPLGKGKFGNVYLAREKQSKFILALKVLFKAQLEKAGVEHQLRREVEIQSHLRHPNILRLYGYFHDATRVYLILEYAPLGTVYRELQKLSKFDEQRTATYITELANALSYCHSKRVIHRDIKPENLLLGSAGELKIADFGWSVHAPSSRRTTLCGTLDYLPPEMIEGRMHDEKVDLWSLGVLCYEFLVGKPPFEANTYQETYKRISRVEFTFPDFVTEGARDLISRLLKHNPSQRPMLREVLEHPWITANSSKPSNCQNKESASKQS
Outline: (§1)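 Recombinant Aurora A (1 ng) or Aurora B (2.5 ng) incubated with test compound, CHOCKtide (1 μg) and [γ-33P]ATP/ATP at 10 μM (Aurora A) or 40 μM (Aurora B), 30 min at 33 °C. Stopped with phosphoric acid; filter-bound 33P counted; IC50 = half-maximal inhibition.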

Aurora B kinase = molecular target: T3, Aurora B kinase (Homo sapiens, UniProt Q96GD4); assay: Aurora B kinase assay ([γ-33P]ATP, CHOCKtide substrate); details: for inhibition at 1 µM: 1.0 μM test compound
T3 construct: purchased Cell signaling
Outline: as §1

T3 sequence (Q96GD4 whole entry): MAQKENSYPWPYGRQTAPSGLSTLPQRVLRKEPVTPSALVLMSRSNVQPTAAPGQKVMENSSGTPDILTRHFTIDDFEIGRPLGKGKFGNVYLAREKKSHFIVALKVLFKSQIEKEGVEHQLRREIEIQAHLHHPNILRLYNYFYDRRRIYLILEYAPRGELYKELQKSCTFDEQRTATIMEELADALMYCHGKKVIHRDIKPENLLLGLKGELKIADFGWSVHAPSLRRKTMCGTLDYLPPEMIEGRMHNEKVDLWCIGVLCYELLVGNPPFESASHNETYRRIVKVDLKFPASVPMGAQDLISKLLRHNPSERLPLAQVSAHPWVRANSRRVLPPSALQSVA

Compound	inhibition at 0.1 µM (Flt3 kinase)	inhibition at 1 µM (Aurora A kinase)	inhibition at 1 µM (Aurora B kinase)	IC50 (Aurora A kinase)	IC50 (Aurora B kinase)
CCOC(=O)CCc1c(/C=C2\C(=O)Nc3ccc(NC(=O)c4ccc(F)cc4)cc32)[nH]c2c1C(=O)CCC2 [DCB-70074, (Z)-5-(4-fluorobenzamido)-3-((3-(3-ethoxy-3-oxopropyl)-4-oxo-4,5,6,7-tetrahydro-1H-indol-2-yl)methylene)indolin-2-one]	-1.3%	19.3%	15.1%		
O=C(O)CCc1c(/C=C2\C(=O)Nc3cc(-c4ccc(O)cc4)ccc32)[nH]c2c1C(=O)CCC2 [DCB-70075, (Z)-6-(4-hydroxyphenyl)-3-((3-carboxyethyl-4-oxo-4,5,6,7-tetrahydro-1H-indol-2-yl)methylene)indolin-2-one]	63.5%	92.4%	55.8%	86.3 nM	456 nM
O=C(O)CCc1c(/C=C2\C(=O)Nc3ccc(NC(=O)c4ccc(F)cc4)cc32)[nH]c2c1C(=O)CCC2 [DCB-70076, (Z)-5-(4-fluorobenzamido)-3-((3-carboxyethyl-4-oxo-4,5,6,7-tetrahydro-1H-indol-2-yl)methylene)indolin-2-one]	-3.1%	40.7%	7.4%		
CCOC(=O)CCc1c(/C=C2\C(=O)Nc3cc(-c4ccc(O)c(O)c4)ccc32)[nH]c2c1C(=O)CCC2 [DCB-70077, (Z)-6-(3,4-dihydroxyphenyl)-3-((3-(3-ethoxy-3-oxopropyl)-4-oxo-4,5,6,7-tetrahydro-1H-indol-2-yl)methylene)indolin-2-one]	58.4%	57%	47.5%		
O=C(O)CCc1c(/C=C2\C(=O)Nc3cc(-c4ccc(O)c(O)c4)ccc32)[nH]c2c1C(=O)CCC2 [DCB-70078, (Z)-6-(3,4-dihydroxyphenyl)-3-((3-carboxyethyl-4-oxo-4,5,6,7-tetrahydro-1H-indol-2-yl)methylene)indolin-2-one]	75%	91.6%	63.4%	46.1 nM	438 nM
CCOC(=O)CCc1c(/C=C2\C(=O)Nc3cc(-c4cc5ccccc5s4)ccc32)[nH]c2c1C(=O)CCC2 [DCB-70079, (Z)-6-(benzo[b]thiophen-2-yl)-3-((3-(3-ethoxy-3-oxopropyl)-4-oxo-4,5,6,7-tetrahydro-1H-indol-2-yl)methylene)indolin-2-one]	1.1%	8.8%	16%		
O=C(O)CCc1c(/C=C2\C(=O)Nc3cc(-c4cc5ccccc5s4)ccc32)[nH]c2c1C(=O)CCC2 [DCB-70080, (Z)-6-(benzo[b]thiophen-2-yl)-3-((3-carboxyethyl-4-oxo-4,5,6,7-tetrahydro-1H-indol-2-yl)methylene)indolin-2-one]	7.4%	40.3%	35.2%		
CCOC(=O)CCc1c(/C=C2\C(=O)Nc3cc(-c4ccc(O)c(OC)c4)ccc32)[nH]c2c1C(=O)CCC2 [DCB-70081, (Z)-6-(4-hydroxy-3-methoxyphenyl)-3-((3-(3-ethoxy-3-oxopropyl)-4-oxo-4,5,6,7-tetrahydro-1H-indol-2-yl)methylene)indolin-2-one]	30%	27.7%	30.6%		
COc1cc(-c2ccc3c(c2)NC(=O)/C3=C\c2[nH]c3c(c2CCC(=O)O)C(=O)CCC3)ccc1O [DCB-70082, (Z)-6-(4-hydroxy-3-methoxyphenyl)-3-((3-carboxyethyl-4-oxo-4,5,6,7-tetrahydro-1H-indol-2-yl)methylene)indolin-2-one]	35.1%	81.7%	47.1%	224 nM	2240 nM
CCOC(=O)CCc1c(C=C2C(=S)Nc3ccccc32)[nH]c2c1C(=O)CCC2 [DCB-70083, 3-((3-(3-ethoxy-3-oxopropyl)-4-oxo-4,5,6,7-tetrahydro-1H-indol-2-yl)methylene)indolin-2-thione]	16%	13.2%	12.8%		
O=C(O)CCc1c(C=C2C(=S)Nc3ccccc32)[nH]c2c1C(=O)CCC2 [DCB-70084, 3-((3-carboxyethyl-4-oxo-4,5,6,7-tetrahydro-1H-indol-2-yl)methylene)indolin-2-thione]	-2.6%	10.9%	17.9%		
CCOC(=O)CCc1c(C=C2C(=S)Nc3cc(Br)ccc32)[nH]c2c1C(=O)CCC2 [DCB-70085, 6-bromo-3-((3-(3-ethoxy-3-oxopropyl)-4-oxo-4,5,6,7-tetrahydro-1H-indol-2-yl)methylene)indolin-2-thione]	18.2%	11.2%	10.7%		
O=C(O)CCc1c(C=C2C(=S)Nc3cc(Br)ccc32)[nH]c2c1C(=O)CCC2 [DCB-70086, 6-bromo-3-((3-carboxyethyl-4-oxo-4,5,6,7-tetrahydro-1H-indol-2-yl)methylene)indolin-2-thione]	0.5%	5.8%	17.8%		
O=C(O)CCc1c(/C=C2\C(=O)Nc3ccc(S(=O)(=O)N4CCCC4)cc32)[nH]c2c1C(=O)CCC2 [DCB-70087, (Z)-5-(pyrrolidin-1-ylsulfonyl)-3-((3-carboxyethyl-4-oxo-4,5,6,7-tetrahydro-1H-indol-2-yl)methylene)indolin-2-one]	1.4%	99.7%	66.2%	7.3 nM	441 nM
O=C(O)CCc1c(/C=C2\C(=O)Nc3ccc(S(=O)(=O)N4CCOCC4)cc32)[nH]c2c1C(=O)CCC2 [DCB-70088, (Z)-5-morpholinosulfonyl-3-((3-carboxyethyl-4-oxo-4,5,6,7-tetrahydro-1H-indol-2-yl)methylene)indolin-2-one]	-2.1%	99.3%	48.8%	28.8 nM	1870 nM
CCOC(=O)CCc1c(/C=C2\C(=O)Nc3ccc(NC(=O)Nc4ccc(C)cc4)cc32)[nH]c2c1C(=O)CCC2 [DCB-70091, (Z)-5-(3-p-tolylureido)-3-((3-(3-ethoxy-3-oxopropyl)-4-oxo-4,5,6,7-tetrahydro-1H-indol-2-yl)methylene)indolin-2-one]	11.1%	7.6%	10.8%		
CCOC(=O)CCc1c(/C=C2\C(=O)Nc3ccc(NC(=O)Nc4ccc(OC)cc4)cc32)[nH]c2c1C(=O)CCC2 [DCB-70092, (Z)-5-(3-(4-methoxyphenyl)ureido)-3-((3-(3-ethoxy-3-oxopropyl)-4-oxo-4,5,6,7-tetrahydro-1H-indol-2-yl)methylene)indolin-2-one]	22.5%	9.4%	9.9%		
Cc1ccc(NC(=O)Nc2ccc3c(c2)/C(=C/c2[nH]c4c(c2CCC(=O)O)C(=O)CCC4)C(=O)N3)cc1 [DCB-70093, (Z)-5-(3-p-tolylureido)-3-((3-carboxyethyl-4-oxo-4,5,6,7-tetrahydro-1H-indol-2-yl)methylene)indolin-2-one]	44.7%	70.5%	14.7%		
COc1ccc(NC(=O)Nc2ccc3c(c2)/C(=C/c2[nH]c4c(c2CCC(=O)O)C(=O)CCC4)C(=O)N3)cc1 [DCB-70094, (Z)-5-(3-(4-methoxyphenyl)ureido)-3-((3-carboxyethyl-4-oxo-4,5,6,7-tetrahydro-1H-indol-2-yl)methylene)indolin-2-one]	52.8%	75.2%	15.5%		
